Results taken from patent publication US20260176636A1, “APTAMER-DIRECT INHIBITOR CONJUGATES AND METHODS OF USING THE SAME” (Duke University, priority 2022, published 2026).
“Also recorded” adds a separate entry of the source. [invdT] = inverted (3'-3') thymidine

Tests used:
[1] = biological target: T1, thrombin (cleavage of fibrinogen) (Homo sapiens, UniProt P00734); assay: Fibrinogen turbidity assay; format: biochemical; conditions: 50 nM inhibitor, 2.5 nM thrombin, 0.8 mg/mL fibrinogen, absorbance 550 nm
T1 construct: Human alpha thrombin, human factor Xa, and human fibrinogen were purchased from Haematologic Technologies Inc; purchased Haematologic Technologies Inc
Description: To test the kinetics of antidote reversal, 1 μL AO2 (final concentration 2 μM) was added to the reaction 10 min after fibrinogen addition. The maximum absorption over the period of assay in the absence and presence of different inhibitors were determined. The time to reach 10%, 50%, and 90% maximum absorption increase from the start point were calculated and recorded as lag time, t50, and t90, respectively, for each inhibitor to evaluate the kinetic of fibrinogen activation. Each experiment was performed in triplicates to determine the mean and standard deviation of each parameter.

normal human plasma [2] = assay: Activated partial thromboplastin time (aPTT) plasma coagulation assay; conditions: normal human plasma; comparison with DAB at 500 nM
Description: (§1) Plasma coagulation assays: Thrombin time (TT), prothrombin time (PT), and activated partial thromboplastin time (aPTT) assays were performed in citrated normal human plasma on a hemostasis coagulation analyzer (Diagnostica Stago). For TT, 5 μL of inhibitors in the reaction buffer were mixed with 100 μL of plasma and incubated at 37° C. for 5 min. 50 μL of thrombin (6 NIH units/ml) in the reaction buffer was then added to initiate clotting. For PT, 5 μl of inhibitors in the reaction buffer were mixed with 50 μL of plasma and incubated at 37° C. for 5 min. 100 μL of TriniCLOT PT Excel S reagent was then added to initiate clotting. For aPTT, 5 μL of inhibitors in the reaction buffer were mixed with 50 μL of plasma and incubated at 37° C. for 5 min, 50 μL of TriniCLOT aPTT S reagents was then added followed by another 5 min incubation at 37° C. Finally, 50 μL of 20 mM CaCl2) was added to initiate clotting. To characterize antidote reversal of HD22-7A-DAB in the above assays, 5 μL AO2 (finial concentration 2 μM) in the reaction buffer was added after 5-min incubation between plasma and HD22-7A-DAB, followed by another 5 min of incubation before the next step. All assays are performed induplicates.

normal human plasma [3] = assay: Prothrombin time (PT) plasma coagulation assay; conditions: normal human plasma; comparison with DAB at 500 nM
Description: as §1

normal human plasma [4] = assay: Thrombin time (TT) plasma coagulation assay; conditions: for effect on TT, result in words: normal human plasma
Description: as §1

Human alpha thrombin = Human alpha thrombin (Homo sapiens, UniProt P00734); assay: Fluorogenic activity assay (fluorescent peptidyl substrate cleavage), thrombin; conditions: for maximum inhibition of thrombin activity: thrombin 0.5 nM, fluorogenic substrate
Description: Initial velocity studies of fluorescent peptidyl substrate cleavage by thrombin were used to assess protease inhibition by the EXACT inhibitor (FIG. 1c).
Fluorogenic activity assay: All reagents were freshly reconstituted in the reaction buffer (20 mM HEPES, 150 mM NaCl, and 2 mM CaCl2), 0.02%, Tween 20, pH 7.5) before the assay. 10 μL of thrombin or factor Xa (final concentration 0.5 nM) were first incubated with 5 μL of inhibitor, inhibitor/antidote mixture, or buffer control on a 384-well opaque plate for 5 min at 28° C. 10 μL of fluorogenic substrate (final concentration 50 μM) was then added to the mixture and the time-course fluorescence (λex=352 nm, λem=470 nm) of the sample were recorded every minute for 15 min at 28° C. using a SpectraMax i3 microplate reader (Molecular Devices). The catalytic rate of the protease was quantified by the slope from linear regression of the time-dependent fluorescence intensity and normalized with the sample containing no inhibitor as 100%. Each experiment was performed in triplicates.

[5] = biological target: T2, thrombin (FVIII activation) (Homo sapiens, UniProt P00734); assay: Thrombin cleavage of FVIII (SDS-PAGE); format: biochemical; conditions: 100 nM inhibitor, 1 nM thrombin, 100 nM FVIII
T2 construct: Human alpha thrombin, human factor Xa, and human fibrinogen were purchased from Haematologic Technologies Inc; purchased Haematologic Technologies Inc
Description: Thrombin (final concentration 1 nM) was incubated in the absence or presence of thrombin inhibitors (final concentration 100 nM) at 37° C. for 5 min following by addition of recombinant human FVIII (final concentration 100 nM). Sample were collected at 1, 2, 5, 10, 20, 30, 40, and 60 min of reaction and quenched in SDS loading buffer and heating at 95° C. for 5 min. The digestion products at different time points are then characterized on a 4-20% PAGE gel. Thrombin's activity on activating FVIII in the absence and presence of thrombin inhibitors were quantified using the time-course concentration of intact light chain under thrombin digestion determined by band intensity. The assay was performed in duplicates.

whole human blood = assay: Active clotting time (ACT)
Description: Active clotting time (ACT): Citrated blood (72 μL) freshly collected from heathy donors were incubated with 6 μL inhibitors reconstituted in the reaction buffer at room temperature for 3 min following addition of 2.1 μL CaCl2) (245 mM). The blood mixture was then immediately analyzed on an ACT+ cuvette (Accriva Diagnostics) using a Hemochron Jr Signature (Instrumentation Laboratory). The assay was performed with a N value of five. One-way ANOVA test was used to compare between two sets of data.

[6] = Plasma stability (nuclease degradation, denaturing PAGE); format: in vitro ADME; conditions: 500 nM conjugate in human plasma (10 U/mL heparin), 37° C.
Description: FIG. 16. End modification of aptamer for higher plasma stability. (a) 3′ modification of HD22-DAB conjugate with invdT or cholesterol modification retain high inhibition potency to thrombin in fluorogenic substrate assay. (b) End modification of HD22-7A-DAB with 3′ invdT or cholesterol prolong […] in plasma. Plasma was prepared from whole blood collected from healthy volunteers that was supplemented with 10 U/mL of heparin to prevent coagulation. 500 nM of aptamer-drug conjugate were incubated with 200 μL of the plasma at 37° C. 20 μL of plasma reaction was collected at different time point (0, 10, 30, 60, 120, 360 min) and immediately vortexed with 100 μL phosphate buffer saline, 100 μL chloroform, and 200 μL methanol to quench nucleases. A mixture of 100 μL water and 100 μL chloroform was further added to extract the nucleic acids. The mixture was vortexed and centrifuged 500 rcf×20 min, and the aqueous phase containing nucleic acids was collected, lyophilized, reconstituted in water, and analyzed on a 15% polyacrylamide gel containing 7M urea.

thrombin [7] = biological target: T3, thrombin (Homo sapiens, UniProt P00734); assay: Bio-layer interferometry; format: binding; set-up: Human alpha thrombin, human factor Xa, and human fibrinogen were purchased from Haematologic Technologies Inc; purchased Haematologic Technologies Inc
Description: Bio-layer interferometry: Bio-layer inferometry was performed using Octet R8 BLI System (Sartorius). Briefly, 3.3 nM of biotinylated HD22-7A-DAB, HD22-7A-NH2, HD23-7A-DAB, and HD23-7A-NH2 were immobilized to Octet streptavidin biosensors (Sartorius). […] A 30-min dissociation was performed in buffer containing 200 nM HD22-7A-DAB. The existence of free HD22-7A-DAB in dissociation buffer prevents re-binding of thrombin and provides more accurate koff measurements.

thrombin [8] = biological target: T3, thrombin; conditions: read-out: KD, thrombin anion binding exosite 2; cited from earlier work
human thrombin = conditions: approximately 1 μM; cited from earlier work

For HD22-7A-DAB, the “inhibition of thrombin-mediated fibrin clot formation, result in words” value [1] was “completely inhibited”, the “effect on aPTT, result in words” value (normal human plasma [2]) was “significantly longer than the same concentration of DAB; also recorded: weaker anticoagulant than UFH” and the “effect on PT, result in words” value (normal human plasma [3]) was “significantly longer than the same concentration of DAB; also recorded: rivals UFH”. For the same substance, the TT clotting time (normal human plasma [4]; 31 nM) was over 999 s, the “effect on TT at inhibitor concentration lower than the added thrombin” value (normal human plasma [4]; below 13.4 nM) was “limited effect on TT” and the “TT clotting time (measurable range of analyzer)” value (normal human plasma [4]; concentration exceeds 16 nM) was over 999 s. For the same substance, the “effect on TT, result in words” value (normal human plasma [4]) was “rivals UFH”, the “thrombin inhibition at a concentration of 1 nM” value (Human alpha thrombin; 1 nM inhibitor) was “completely inhibits thrombin activity” and the “thrombin inhibition, result in words” value (Human alpha thrombin; fluorogenic substrate assay) was “significantly higher inhibitory effect of thrombin than DAB, HD22, or their equimolar mixture”. The “potency higher than DAB” value (Human alpha thrombin; ratio of IC50 against thrombin) was 500 fold, the “maximum inhibition of thrombin activity” value (Human alpha thrombin) was over 99% and the “inhibition of thrombin-mediated FVIII cleavage, result in words” value [5] was “no proteolysis was observed for over one hour”. The “ACT compared with 5 U/mL UFH” value (whole human blood; 1 μM) was “comparable to”, the “ACT compared with 5 U/mL UFH” value (whole human blood; 2 μM) was “significantly higher than” and the “ACT (measurable range of analyzer)” value (whole human blood; 2 μM, whole blood) was over 999 s. For the same substance, the ACT (whole human blood; 1-μM concentration, whole human blood) was 624 s, the “effect on ACT, result in words” value (whole human blood; whole human blood) was “dose dependently prolonged ACT; also recorded: significantly higher than the ACTs that followed the addition of DAB, HD22, or their equimolar mixture” and the half-life in plasma [6] was “around 1 hour”. For the same substance, the “koff for thrombin binding” value (thrombin [7]; dissociation in buffer with 200 nM HD22-7A-DAB) was 0.0021 s⁻¹ and the “kon for thrombin binding” value (thrombin [7]; immobilized biotinylated inhibitor) was 3.9e+07 M⁻¹ s⁻¹.

In the case of “HD22: thrombin exosite II-binding DNA aptamer, SEQ ID NO: 1 [reference compound]”, the “inhibition of thrombin-mediated fibrin clot formation, result in words” value [1] is reported as “did not inhibit this thrombin activity”, the “effect on aPTT, result in words” value (normal human plasma [2]) is reported as “no anticoagulant effect” and the “effect on PT, result in words” value (normal human plasma [3]) is reported as “no anticoagulant effect”. The “effect on TT, result in words” value (normal human plasma [4]) was “minimally affected TT”, the “maximum inhibition of thrombin activity” value (Human alpha thrombin) was 30% and the “inhibition of thrombin-mediated FVIII cleavage, result in words” value [5] was “showed an inhibitory effect”. For the same substance, the Kd (thrombin [8]) was 0.5 nM.

For “Tog25t: thrombin exosite II-targeting RNA aptamer, SEQ ID NO: 12 (GGGAACAAAGCUGAAGUACUUACCC; [invdT] at 3' end, other sugars and backbone not given here; further chemistry not fully specified)”, the “effect on aPTT clotting time” value (human thrombin) is given as “modest extension in aPTT clotting time”.
